Measurements from the NIST ThermoML archive (doi:10.1016/j.fluid.2014.04.019).
Numbers after ± are expanded uncertainties.

Experiments:
[1] = 101 kPa, Liquid
[2] = xn = mol fraction of the nth substance listed; settings: 101 kPa, Liquid, x1 = 1

| Structure (SMILES) | kinematic viscosity ([1]; 298.15 K) | mass density ([1]; 298.15 K) | kinematic viscosity ([1]; 303.15 K) | mass density ([1]; 303.15 K) | kinematic viscosity ([1]; 308.15 K) | mass density ([1]; 308.15 K) | kinematic viscosity ([1]; 313.15 K) | mass density ([1]; 313.15 K) | kinematic viscosity ([1]; 318.15 K) | mass density ([1]; 318.15 K) | kinematic viscosity ([2]; 298.15 K) | mass density ([2]; 298.15 K) | kinematic viscosity ([2]; 303.15 K) | mass density ([2]; 303.15 K) | kinematic viscosity ([2]; 308.15 K) | mass density ([2]; 308.15 K) | kinematic viscosity ([2]; 313.15 K) | mass density ([2]; 313.15 K) | kinematic viscosity ([2]; 318.15 K) | mass density ([2]; 318.15 K) |
| --- | --- | --- | --- | --- | --- | --- | --- | --- | --- | --- | --- | --- | --- | --- | --- | --- | --- | --- | --- | --- |
| OCCOCCO [diethylene glycol] | 2.76e-05 ± 1.2e-06 m2/s | 1113 ± 2.9 kg/m3 | 2.13e-05 ± 9e-07 m2/s | 1109.2 ± 3 kg/m3 | 1.68e-05 ± 7e-07 m2/s | 1106.1 ± 3.1 kg/m3 | 1.45e-05 ± 6e-07 m2/s | 1103 ± 3.2 kg/m3 | 1.12e-05 ± 5e-07 m2/s | 1099.3 ± 3.3 kg/m3 |  |  |  |  |  |  |  |  |  |  |
| CN(C)C=O [dimethylformamide] | 8.15e-07 ± 5.2e-08 m2/s | 943.9 ± 2.4 kg/m3 | 7.6e-07 ± 4.9e-08 m2/s | 939.6 ± 2.5 kg/m3 | 7.22e-07 ± 4.7e-08 m2/s | 934.2 ± 2.6 kg/m3 | 6.75e-07 ± 4.4e-08 m2/s | 929.9 ± 2.7 kg/m3 | 6.38e-07 ± 4.2e-08 m2/s | 924.7 ± 2.8 kg/m3 |  |  |  |  |  |  |  |  |  |  |
| CN(C)C=O [dimethylformamide] + OCCOCCO |  |  |  |  |  |  |  |  |  |  | 8.15e-07 ± 5.2e-08 m2/s | 943.9 ± 2.4 kg/m3 | 7.6e-07 ± 4.9e-08 m2/s | 939.6 ± 2.5 kg/m3 | 7.22e-07 ± 4.7e-08 m2/s | 934.2 ± 2.6 kg/m3 | 6.75e-07 ± 4.4e-08 m2/s | 929.9 ± 2.7 kg/m3 | 6.38e-07 ± 4.2e-08 m2/s | 924.7 ± 2.8 kg/m3 |
